Source: paper PMC8053042 (Cell chemical biology, 2020)

Target: T1, Doublecortin-like kinase 1 (DCLK1) (Homo sapiens, UniProt O15075)
T1 sequence (O15075 390-647 limits assumed): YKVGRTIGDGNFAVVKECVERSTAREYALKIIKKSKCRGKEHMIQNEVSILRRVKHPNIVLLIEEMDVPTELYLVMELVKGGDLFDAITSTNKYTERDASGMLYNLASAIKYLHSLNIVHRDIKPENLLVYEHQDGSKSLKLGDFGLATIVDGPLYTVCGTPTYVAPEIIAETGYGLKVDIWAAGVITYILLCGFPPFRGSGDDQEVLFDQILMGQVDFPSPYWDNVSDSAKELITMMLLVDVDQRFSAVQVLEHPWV
Assay: peptide substrate mobility shift kinase assay with purified DCLK1 WT
Assay type: biochemical

IC50: 55 nM
SMILES: COc1cc(N2CCN(C)CC2)ccc1Nc1ncc2c(n1)N(C)c1ccccc1C(=O)N2CC(F)(F)F [DCLK1-IN-1]
